Assay results from PubChem BioAssay AID1918946 (Molecular Pharmacology Branch, DTP, NCI, 2023).

Tested on: 885512-296-R-J2-PDC complex spheroid viability
Assay: Anticancer human tumor 885512-296-R-J2-PDC patient-derived breast carcinoma cell line growth inhibition
Details: for IC50: curve of first compound; for viability, T/C: stronger effect = lower value
Text: Multicellular complex tumor spheroid response to LSD1 Inhibitor Iadademstat in combination with a variety of drugs and investigational agents in selected tumor cell lines
The current study was undertaken to assess response to LSD1 inhibitors in combination with standard-of-care drugs and investigational agents in solid tumor complex spheroid models as well as in the K-562 leukemia. Complex spheroids include a stromal component modeled by human endothelial cells (HUVEC) and fibroblasts modeled by human mesenchymal stem cells (MSCs). The concentration ranges selected for each drug and investigational agent were based upon clinically achievable concentrations if the clinical Cmax of the agent was known.
Compounds. The drugs and investigational agents used in this study are listed on Table 1. All of the agents used, including staurosporine (NSC755774) and gemcitabine (NSC613327), were obtained from the Developmental Therapeutics Program, NCI. FDA-approved anticancer drugs are available from the NCI at http://dtp.nci.nih.gov/branches/dscb/oncology_drugset_explanation.html. Drugs and investigational agents were >95% pure by proton nuclear magnetic resonance (NMR) and liquid chromatography/mass spectrometry (LC/MS). Stock solutions were prepared at 400x in DMSO, stored at -70 degrees C, and diluted in fresh medium prior to their use. The final concentration of DMSO in cell culture wells never exceeded 0.25% (v/v). The FDA-approved anticancer drug set is available from the Developmental Therapeutics Program at https://dtp.cancer.gov/organization/dscb/obtaining/available_plates.htm. All drugs and investigational agents were tested over a range starting from a high concentration at or near the clinical Cmax and decreasing in half-log increments. If the clinical Cmax for an agent had not been determined, the highest concentration tested was 10 microM.
Cell Lines. The patient-derived cancer cell (PDC) lines: 292921-168-R-J2-PDC, K24384-001-R-PDC, and 521955-158-R2-J5-PDC pancreatic carcinomas, 556581-035-R-J1 ovarian carcinoma, 324938-238-R-J1-PDC, 855422-203-R-J1-PDC and 883617-216-R-J1-PDC urothelial bladder carcinomas, 743489-274-T-PDC renal cell carcinoma, 138582-R-J1 Merkel cell tumor, K60290-347-R-J1 and K57222-313-R-J1-PDC glioblastomas, 653999-131-R-J2-PDC, LG0703-F948-PDC, and 349418-098-R-PDC non-small cell lung carcinomas, 885512-296-R-J2-PDC, 171881-019-R-J1-PDC breast carcinomas and 186277-243-T-J2-PDC and 233499-124-R-J2-PDC colon carcinomas were obtained from the NCI Patient-Derived Models Repository (PDMR, https://pdmr.cancer.gov). The established cell lines NCI/ADR-RES (RRID:CVCL_14520 and OVCAR-5 (RRID:CVCL_1628) ovarian carcinomas, 786-O (RRID:CVCL_1051) and A498 (RRID:CVCL_A498) renal cell carcinoma, NCI-H211 (ATCC, cat. CRL-5824; RRID:CVCL_1529), NCI-H196 (ATCC, cat. CRL-5823, RRID:CVCL_1509), SW 1271 (ATCC, cat. CRL-2177, RRID:CVCL_1716) and NCI-H1876 (ATCC, cat. CRL-5902, RRID:CVCL_1503) small cell lung carcinomas, MDA-MB-231 (RRID:CVCL_0062) and MDA-MB-468 (RRID:CVCL_0419)breast carcinomas (10-12). Pooled donor human umbilical vein endothelial cells (HUVEC, Lonza, cat. CC-2519) and human mesenchymal stem cells (hMSC, Lonza, cat. PT-2501) were purchased from Lonza (Walkersville, MD).
Cell Culture. All cells were maintained in an incubator at 37 degrees C and 5% CO2 with 95% humidity. The PDC lines were cultured according to standard operating procedures established by the NCI PDMR (https://pdmr.cancer.gov). Briefly all PDCs were thawed and cultured in Matrigel-coated flasks prepared with a working solution of 1X Ham's F-12 nutrient mix, without supplementation (Invitrogen, Waltham, MA, cat. 11765054), 100 U/mL penicillin-streptomycin (Invitrogen, cat. 15140122), and 2.5% Matrigel (Corning Inc., Corning, NY, cat. 354248) for the first three passages. […]

[1] = second compound 0.1 µM, first compound 0.000949 µM
[2] = second compound 0.1 µM, first compound 0.003 µM
[3] = second compound 0.1 µM, first compound 0.00949 µM
[4] = second compound 0.1 µM, first compound 0.03 µM
[5] = second compound 0.1 µM, first compound 0.0949 µM
[6] = second compound 0.1 µM, first compound 0.3 µM
[7] = second compound 0.316 µM, first compound 0.000949 µM
[8] = second compound 0.316 µM, first compound 0.003 µM
[9] = second compound 0.316 µM, first compound 0.00949 µM
[10] = second compound 0.316 µM, first compound 0.03 µM
[11] = second compound 0.316 µM, first compound 0.0949 µM
[12] = second compound 0.316 µM, first compound 0.3 µM
[13] = second compound 1 µM, first compound 0.000949 µM
[14] = second compound 1 µM, first compound 0.003 µM
[15] = second compound 1 µM, first compound 0.00949 µM
[16] = second compound 1 µM, first compound 0.03 µM
[17] = second compound 1 µM, first compound 0.0949 µM
[18] = second compound 1 µM, first compound 0.3 µM
[19] = second compound 3.16 µM, first compound 0.000949 µM
[20] = second compound 3.16 µM, first compound 0.003 µM
[21] = second compound 3.16 µM, first compound 0.00949 µM
[22] = second compound 3.16 µM, first compound 0.03 µM
[23] = second compound 3.16 µM, first compound 0.0949 µM
[24] = second compound 3.16 µM, first compound 0.3 µM
[25] = second compound 10 µM, first compound 0.000949 µM
[26] = second compound 10 µM, first compound 0.003 µM
[27] = second compound 10 µM, first compound 0.00949 µM
[28] = second compound 10 µM, first compound 0.03 µM
[29] = second compound 10 µM, first compound 0.0949 µM
[30] = second compound 10 µM, first compound 0.3 µM
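Note: spheroids exposed to agents for 7 days before viability read.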

CCc1c2c(nc3ccc(O)cc13)-c1cc3c(c(=O)n1C2)COC(=O)[C@]3(O)CC + NC1CC1c1ccc(-c2cccc(O)c2)cc1
IC50 (second compound 0.1 µM): < 0.949 nM | IC50 (second compound 0.316 µM): < 0.949 nM | IC50 (second compound 1 µM): < 0.949 nM | IC50 (second compound 3.16 µM): < 0.949 nM | IC50 (second compound 10 µM): < 0.949 nM | viability, T/C [1]: 1.84% | viability, T/C [2]: 1.73% | viability, T/C [3]: 1.08% | viability, T/C [4]: 1.22% | viability, T/C [5]: 1.37% | viability, T/C [6]: 1.16% | viability, T/C [7]: 2.42% | viability, T/C [8]: 1.57% | viability, T/C [9]: 1.3% | viability, T/C [10]: 1.37% | viability, T/C [11]: 1.16% | viability, T/C [12]: 1.05% | viability, T/C [13]: 1.79% | viability, T/C [14]: 1.95% | viability, T/C [15]: 1.46% | viability, T/C [16]: 1.26% | viability, T/C [17]: 1.14% | viability, T/C [18]: 1.13% | viability, T/C [19]: 2.13% | viability, T/C [20]: 1.76% | viability, T/C [21]: 1.07% | viability, T/C [22]: 1.01% | viability, T/C [23]: 0.8% | viability, T/C [24]: 0.78% | viability, T/C [25]: 2.37% | viability, T/C [26]: 2.17% | viability, T/C [27]: 1.55% | viability, T/C [28]: 0.87% | viability, T/C [29]: 0.91% | viability, T/C [30]: 0.8%

Nc1ccn(C2OC(CO)C(O)C2(F)F)c(=O)n1 (stereo not given) + NC1CC1c1ccc(-c2cccc(O)c2)cc1
IC50 (second compound 0.1 µM): < 0.949 nM | IC50 (second compound 0.316 µM): < 0.949 nM | IC50 (second compound 1 µM): < 0.949 nM | IC50 (second compound 3.16 µM): < 0.949 nM | IC50 (second compound 10 µM): < 0.949 nM | viability, T/C [1]: 13.8% | viability, T/C [2]: 2.18% | viability, T/C [3]: 2% | viability, T/C [4]: 2.39% | viability, T/C [5]: 2.84% | viability, T/C [6]: 2.16% | viability, T/C [7]: 17.7% | viability, T/C [8]: 2.09% | viability, T/C [9]: 1.82% | viability, T/C [10]: 2.16% | viability, T/C [11]: 2.14% | viability, T/C [12]: 2.23% | viability, T/C [13]: 12.1% | viability, T/C [14]: 2.01% | viability, T/C [15]: 2.01% | viability, T/C [16]: 2.18% | viability, T/C [17]: 2.05% | viability, T/C [18]: 2.5% | viability, T/C [19]: 15.3% | viability, T/C [20]: 2.08% | viability, T/C [21]: 2.46% | viability, T/C [22]: 1.83% | viability, T/C [23]: 2.59% | viability, T/C [24]: 2.46% | viability, T/C [25]: 15.8% | viability, T/C [26]: 2.15% | viability, T/C [27]: 2.26% | viability, T/C [28]: 2.65% | viability, T/C [29]: 2.46% | viability, T/C [30]: 3.06%

O=C(c1cc(Cc2n[nH]c(=O)c3ccccc23)ccc1F)N1CCN(C(=O)C2CC2)CC1 + NC1CC1c1ccc(-c2cccc(O)c2)cc1
IC50 (second compound 0.1 µM): 945 nM | IC50 (second compound 0.316 µM): 896 nM | IC50 (second compound 1 µM): 805 nM | IC50 (second compound 3.16 µM): 660 nM | IC50 (second compound 10 µM): 361 nM | viability, T/C (second compound 0.1 µM, first compound 0.0316 µM): 116% | viability, T/C (second compound 0.1 µM, first compound 0.1 µM): 106% | viability, T/C (second compound 0.1 µM, first compound 0.316 µM): 90.9% | viability, T/C (second compound 0.1 µM, first compound 1 µM): 48.6% | viability, T/C (second compound 0.1 µM, first compound 3.16 µM): 13.1% | viability, T/C (second compound 0.1 µM, first compound 10 µM): 4.93% | viability, T/C (second compound 0.316 µM, first compound 0.0316 µM): 103% | viability, T/C (second compound 0.316 µM, first compound 0.1 µM): 114% | viability, T/C (second compound 0.316 µM, first compound 0.316 µM): 76.6% | viability, T/C (second compound 0.316 µM, first compound 1 µM): 51.7% | viability, T/C (second compound 0.316 µM, first compound 3.16 µM): 10.8% | viability, T/C (second compound 0.316 µM, first compound 10 µM): 5.15% | viability, T/C (second compound 1 µM, first compound 0.0316 µM): 96.9% | viability, T/C (second compound 1 µM, first compound 0.1 µM): 105% | viability, T/C (second compound 1 µM, first compound 0.316 µM): 88.7% | viability, T/C (second compound 1 µM, first compound 1 µM): 40.4% | viability, T/C (second compound 1 µM, first compound 3.16 µM): 13.3% | viability, T/C (second compound 1 µM, first compound 10 µM): 4.98% | viability, T/C (second compound 3.16 µM, first compound 0.0316 µM): 111% | viability, T/C (second compound 3.16 µM, first compound 0.1 µM): 80.8% | viability, T/C (second compound 3.16 µM, first compound 0.316 µM): 75.9% | viability, T/C (second compound 3.16 µM, first compound 1 µM): 41.1% | viability, T/C (second compound 3.16 µM, first compound 3.16 µM): 9.4% | viability, T/C (second compound 3.16 µM, first compound 10 µM): 4.81% | viability, T/C (second compound 10 µM, first compound 0.0316 µM): 80.1% | viability, T/C (second compound 10 µM, first compound 0.1 µM): 70% | viability, T/C (second compound 10 µM, first compound 0.316 µM): 55.1% | viability, T/C (second compound 10 µM, first compound 1 µM): 22.2% | viability, T/C (second compound 10 µM, first compound 3.16 µM): 6.21% | viability, T/C (second compound 10 µM, first compound 10 µM): 4.07%
